# Results reported in patent publication US11053242B2, “[9,10-dimethoxy-3-(2-methylpropyl)-1H,2H,3H,4H,6H,7H,11BH-pyrido-[2,1-a]isoquinolin-2-yl]methanol and compounds, compositions and methods relating thereto” (Neurocrine Biosciences, Inc., priority 2015, dated 2021).
# Target: VMAT2 (human platelet homogenate) (Homo sapiens (Human), UniProt Q05940)
# Experiment: Human VMAT2 Ki, slightly modified competition binding procedure (Table 11);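 further: competition binding with 90 min incubation at 25 °C, after which filter-retained radioligand was measured by scintillation counting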
# Settings: 10 nM 3H-dihydrotetrabenazine
# Procedure: Following incubation at 25° C. for 90 minutes, bound radioligand was collected by rapid filtration onto GF/B glass fiber filters using a Unifilter-96 Harvester (PerkinElmer). Filter plates were pre-treated with 0.1% polyethylenimine and allowed to dry overnight, and following harvesting the filter plates were washed with 800 d VMAT2 binding buffer. Bound radioligand was quantified by scintillation counting using a Topcount NXT (PerkinElmer).
# Sequence of VMAT2 (human platelet homogenate) (Q05940 whole entry): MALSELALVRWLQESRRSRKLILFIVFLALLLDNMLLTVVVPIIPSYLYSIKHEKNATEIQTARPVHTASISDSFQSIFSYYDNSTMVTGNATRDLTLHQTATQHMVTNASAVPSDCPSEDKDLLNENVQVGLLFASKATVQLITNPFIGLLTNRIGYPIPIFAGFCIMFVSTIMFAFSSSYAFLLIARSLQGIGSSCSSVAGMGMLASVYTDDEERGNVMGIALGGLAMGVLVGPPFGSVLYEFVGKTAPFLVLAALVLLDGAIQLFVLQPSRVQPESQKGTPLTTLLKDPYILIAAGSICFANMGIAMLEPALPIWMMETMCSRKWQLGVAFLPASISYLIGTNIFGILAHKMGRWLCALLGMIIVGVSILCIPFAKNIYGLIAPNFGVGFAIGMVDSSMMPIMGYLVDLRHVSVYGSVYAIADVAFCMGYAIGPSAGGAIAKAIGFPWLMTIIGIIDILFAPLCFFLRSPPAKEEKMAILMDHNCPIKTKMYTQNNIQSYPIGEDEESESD
row,SMILES,Ki
1,"COc1cc2c(cc1OC)[C@H]1C[C@@H](COC(=O)NC3(C(=O)O)CCCC3)[C@H](CC(C)C)CN1CC2 [Compound 5-39, 1-[({[(2R,3S,11bR)-9,10-dimethoxy-3-(2-methylpropyl)-1H,2H,3H,4H,6H,7H,11bH-pyrido[2,1-a]isoquinolin-2-yl]methoxy}carbonyl)amino]cyclopentane-1-carboxylic acid]",0.01 to 0.5 µM
2,COc1cc2c(cc1OC)[C@H]1C[C@@H](COC(=O)CCC(C)(C)C(=O)O)[C@H](CC(C)C)CN1CC2 [Compound 3-12],0.01 to 0.5 µM
3,"COc1cc2c(cc1OC)[C@H]1C[C@@H](COC(=O)C3COCCN3)[C@H](CC(C)C)CN1CC2 (stereo partly drawn) [Compound 4-32, [(2R,3S,11bR)-9,10-dimethoxy-3-(2-methylpropyl)-1H,2H,3H,4H,6H,7H,11bH-pyrido[2,1-a]isoquinolin-2-yl]methyl morpholine-3-carboxylate]",0.01 to 0.5 µM
4,"COc1cc2c(cc1OC)[C@H]1C[C@@H](COC(=O)C3CCCCC3C(=O)O)[C@H](CC(C)C)CN1CC2 (stereo partly drawn) [Compound 3-5, 2-({[(2R,3S,11bR)-9,10-dimethoxy-3-(2-methylpropyl)-1H,2H,3H,4H,6H,7H,11bH-pyrido[2,1-a]isoquinolin-2-yl]methoxy}carbonyl)cyclohexane-1-carboxylic acid]",0.01 to 0.5 µM
5,"COc1cc2c(cc1OC)[C@H]1C[C@@H](COC(=O)CCn3nccc3C)[C@H](CC(C)C)CN1CC2 [Compound 2-29, [(2R,3S,11bR)-9,10-dimethoxy-3-(2-methylpropyl)-1H,2H,3H,4H,6H,7H,11bH-pyrido[2,1-a]isoquinolin-2-yl]methyl 3-(5-methyl-1H-pyrazol-1-yl)propanoate]",0.01 to 0.5 µM
6,"COc1cc2c(cc1OC)[C@H]1C[C@@H](COC(=O)CCN3CCN(C)CC3)[C@H](CC(C)C)CN1CC2 [Compound 2-15, [(2R,3S,11bR)-9,10-dimethoxy-3-(2-methylpropyl)-1H,2H,3H,4H,6H,7H,11bH-pyrido[2,1-a]isoquinolin-2-yl]methyl 3-(4-methylpiperazin-1-yl)propanoate]",< 0.01 µM
7,"COc1cc2c(cc1OC)[C@H]1C[C@@H](COC[C@H]3CCCN3)[C@H](CC(C)C)CN1CC2 [Compound 10-7, (2R)-2-({[(2R,3S,11bR)-9,10-dimethoxy-3-(2-methylpropyl)-1H,2H,3H,4H,6H,7H,11bH-pyrido[2,1-a]isoquinolin-2-yl]methoxy}methyl)pyrrolidine]",< 0.01 µM
8,"COc1cc2c(cc1OC)[C@H]1C[C@@H](COC(=O)c3ccc(CN)cc3)[C@H](CC(C)C)CN1CC2 [Compound 4-18, [(2R,3S,11bR)-9,10-dimethoxy-3-(2-methylpropyl)-1H,2H,3H,4H,6H,7H,11bH-pyrido[2,1-a]isoquinolin-2-yl]methyl 4-(aminomethyl)benzoate]",0.01 to 0.5 µM
9,"COc1cc2c(cc1OC)[C@H]1C[C@@H](COC(=O)C3CCCC3N)[C@H](CC(C)C)CN1CC2 (stereo partly drawn) [Compound 4-11, [(2R,3S,11bR)-9,10-dimethoxy-3-(2-methylpropyl)-1H,2H,3H,4H,6H,7H,11bH-pyrido[2,1-a]isoquinolin-2-yl]methyl 2-aminocyclopentane-1-carboxylate]",0.01 to 0.5 µM
10,"COc1cc2c(cc1OC)[C@H]1C[C@@H](COC(=O)[C@H]3CCCC[C@@H]3N)[C@H](CC(C)C)CN1CC2 [Compound 4-25, [(2R,3S,11bR)-9,10-dimethoxy-3-(2-methylpropyl)-1H,2H,3H,4H,6H,7H,11bH-pyrido[2,1-a]isoquinolin-2-yl]methyl (1S,2S)-2-aminocyclohexane-1-carboxylate]",0.01 to 0.5 µM
11,"COc1cc2c(cc1OC)[C@H]1C[C@@H](COC(=O)[C@@H]3CCCC[C@H]3N)[C@H](CC(C)C)CN1CC2 [Compound 4-4, [(2R,3S,11bR)-9,10-dimethoxy-3-(2-methylpropyl)-1H,2H,3H,4H,6H,7H,11bH-pyrido[2,1-a]isoquinolin-2-yl]methyl (1R,2R)-2-aminocyclohexane-1-carboxylate]",< 0.01 µM
12,"COc1cc2c(cc1OC)[C@H]1C[C@@H](COCC(=O)c3ccc(F)cc3)[C@H](CC(C)C)CN1CC2 [Compound 9-3, 2-{[(2R,3S,11bR)-9,l0-dimethoxy-3-(2-methylpropyl)-1H,2H,3H,4H,6H,7H,11bH-pyrido[2,1-a]isoquinolin-2-yl]methoxy}-1-(4-fluorophenyl)ethan-1-one]",> 0.5 µM
13,"COc1cc2c(cc1OC)[C@H]1C[C@@H](COC(=O)CC(=O)O)[C@H](CC(C)C)CN1CC2 [Compound 3-2, 3-{[(2R,3S,11bR)-9,10-dimethoxy-3-(2-methylpropyl)-1H,2H,3H,4H,6H,7H,11bH-pyrido[2,1-a]isoquinolin-2-yl]methoxy}-3-oxopropanoic acid]",< 0.01 µM
14,"COc1cc2c(cc1OC)[C@H]1C[C@@H](COC(=O)C(N)c3ccccc3OC)[C@H](CC(C)C)CN1CC2 (stereo partly drawn) [Compound 4-19, [(2R,3S,11bR)-9,10-dimethoxy-3-(2-methylpropyl)-1H,2H,3H,4H,6H,7H,11bH-pyrido[2,1-a]isoquinolin-2-yl]methyl 2-amino-2-(2-methoxyphenyl)acetate]",0.01 to 0.5 µM
15,"COc1cc2c(cc1OC)[C@H]1C[C@@H](COC(=O)N3CCN(C(C)C)CC3)[C@H](CC(C)C)CN1CC2 [Compound 5-31, [(2R,3S,11bR)-9,10-dimethoxy-3-(2-methylpropyl)-1H,2H,3H,4H,6H,7H,11bH-pyrido[2,1-a]isoquinolin-2-yl]methyl 4-(propan-2-yl)piperazine-1-carboxylate]",< 0.01 µM
16,"COc1cc2c(cc1OC)[C@H]1C[C@@H](COC(=O)CCn3c(=O)oc4ccccc43)[C@H](CC(C)C)CN1CC2 [Compound 2-39, [(2R,3S,11bR)-9,10-dimethoxy-3-(2-methylpropyl)-1H,2H,3H,4H,6H,7H,11bH-pyrido[2,1-a]isoquinolin-2-yl]methyl 3-(2-oxo-2,3-dihydro-1,3-benzoxazol-3-yl)propanoate]",< 0.01 µM
17,"COc1cc2c(cc1OC)[C@H]1C[C@@H](COC(=O)CCC(=O)N(C)C)[C@H](CC(C)C)CN1CC2 [Compound 2-4, [(2R,3S,11bR)-9,10-dimethoxy-3-(2-methylpropyl)-1H,2H,3H,4H,6H,7H,11bH-pyrido[2,1-a]isoquinolin-2-yl]methyl 3-(dimethylcarbamoyl)propanoate]",< 0.01 µM

# More lines, now with the values ahead:
row,Ki,SMILES
1,< 0.01 µM,"COc1cc2c(cc1OC)[C@H]1C[C@@H](COC(=O)C3(OC)CCNCC3)[C@H](CC(C)C)CN1CC2 [Compound 4-22, [(2R,3S,11bR)-9,10-dimethoxy-3-(2-methylpropyl)-1H,2H,3H,4H,6H,7H,11bH-pyrido[2,1-a]isoquinolin-2-yl]methyl 4-methoxypiperidine-4-carboxylate]"
2,< 0.01 µM,"COc1cc2c(cc1OC)[C@H]1C[C@@H](COC(=O)N3C[C@H](C)NC[C@H]3C)[C@H](CC(C)C)CN1CC2 [Compound 6-2, [(2R,3S,11bR)-9,10-dimethoxy-3-(2-methylpropyl)-1H,2H,3H,4H,6H,7H,11bH-pyrido[2,1-a]isoquinolin-2-yl]methyl (2R,5S)-2,5-dimethylpiperazine-1-carboxylate]"
3,< 0.01 µM,"COc1cc2c(cc1OC)[C@H]1C[C@@H](COC(=O)C3CCCNC3)[C@H](CC(C)C)CN1CC2 (stereo partly drawn) [Compound 4-20, [(2R,3S,11bR)-9,10-dimethoxy-3-(2-methylpropyl)-1H,2H,3H,4H,6H,7H,11bH-pyrido[2,1-a]isoquinolin-2-yl]methyl piperidine-3-carboxylate]"
4,< 0.01 µM,"COc1cc2c(cc1OC)[C@H]1C[C@@H](COC(=O)C3CCOCC3)[C@H](CC(C)C)CN1CC2 [Compound 2-22, [(2R,3S,11bR)-9,10-dimethoxy-3-(2-methylpropyl)-1H,2H,3H,4H,6H,7H,11bH-pyrido[2,1-a]isoquinolin-2-yl]methyl oxane-4-carboxylate]"
5,< 0.01 µM,"COc1cc2c(cc1OC)[C@H]1C[C@@H](COC(=O)CC3NC(=O)NC3=O)[C@H](CC(C)C)CN1CC2 (stereo partly drawn) [Compound 2-30, [(2R,3S,11bR)-9,10-dimethoxy-3-(2-methylpropyl)-1H,2H,3H,4H,6H,7H,11bH-pyrido[2,1-a]isoquinolin-2-yl]methyl 2-(2,5-dioxoimidazolidin-4-yl)acetate]"
6,< 0.01 µM,"CCOC[C@@H]1C[C@@H]2c3cc(OC)c(OC)cc3CCN2C[C@H]1CC(C)C [Compound 9-8, (2R,3S,11bR)-2-(ethoxymethyl)-9,10-dimethoxy-3-(2-methylpropyl)-1H,2H,3H,4H,6H,7H,11bH-pyrido[2,1-a]isoquinoline]"
7,< 0.01 µM,"COc1cc2c(cc1OC)[C@H]1C[C@@H](COC(=O)C3CCCN(C)C3)[C@H](CC(C)C)CN1CC2 (stereo partly drawn) [Compound 2-12, [(2R,3S,11bR)-9,10-dimethoxy-3-(2-methylpropyl)-1H,2H,3H,4H,6H,7H,11bH-pyrido[2,1-a]isoquinolin-2-yl]methyl 1-methylpiperidine-3-carboxylate]"
8,< 0.01 µM,"COC[C@@H]1C[C@@H]2c3cc(OC)c(OC)cc3CCN2C[C@H]1CC(C)C [Compound 9-1, (2R,3S,11bR)-9,10-dimethoxy-2-(methoxymethyl)-3-(2-methylpropyl)-1H,2H,3H,4H,6H,7H,11bH-pyrido[2,1-a]isoquinoline]"
9,< 0.01 µM,"COc1cc2c(cc1OC)[C@H]1C[C@@H](COC(=O)[C@@H](N)Cc3ccccc3)[C@H](CC(C)C)CN1CC2 [Compound 4-2, [(2R,3S,11bR)-9,10-dimethoxy-3-(2-methylpropyl)-1H,2H,3H,4H,6H,7H,11bH-pyrido[2,1-a]isoquinolin-2-yl]methyl (2S)-2-amino-3-phenylpropanoate]"
10,< 0.01 µM,"COc1cc2c(cc1OC)[C@H]1C[C@@H](COC(=O)N3CCO[C@H](C)C3)[C@H](CC(C)C)CN1CC2 [Compound 5-37, [(2R,3S,11bR)-9,10-dimethoxy-3-(2-methylpropyl)-1H,2H,3H,4H,6H,7H,11bH-pyrido[2,1-a]isoquinolin-2-yl]methyl (2R)-2-methylmorpholine-4-carboxylate]"

# System: not listed separately
# Experiment: In vitro human intestinal S9 hydrolysis assay (formation of compound 1-1)
# Settings: human intestinal S9, 1 uM, 37° C., up to 60 minutes
# Procedure: Compounds (1 uM) were incubated with pooled intestinal S9 subcellular preparations (0.5 mg/mL total protein) from SD rats and humans without the addition of protease inhibitor phenylmethylsulfonylflouride. Incubations were carried out in a potassium phosphate buffer (50 mM). All concentrations were relative to the final incubation volume of 125 uL. Incubations were conducted at 37° C. for 0, 5, 10, 20, 40 and 60 minutes in a water bath and terminated by rapid mixing with 150 uL of ice-cold acetonitrile containing 1% formic acid. Internal standard was added and proteins were precipitated and removed by centrifugation prior to LC/MS analysis.
row,S9 Assay (ability to form compound 1-1),SMILES
1,+++,"COc1cc2c(cc1OC)[C@H]1C[C@@H](COC(=O)NC3(C(=O)O)CCCC3)[C@H](CC(C)C)CN1CC2 [Compound 5-39, 1-[({[(2R,3S,11bR)-9,10-dimethoxy-3-(2-methylpropyl)-1H,2H,3H,4H,6H,7H,11bH-pyrido[2,1-a]isoquinolin-2-yl]methoxy}carbonyl)amino]cyclopentane-1-carboxylic acid]"
2,++,"COc1cc2c(cc1OC)[C@H]1C[C@@H](COC(=O)C3(OC)CCNCC3)[C@H](CC(C)C)CN1CC2 [Compound 4-22, [(2R,3S,11bR)-9,10-dimethoxy-3-(2-methylpropyl)-1H,2H,3H,4H,6H,7H,11bH-pyrido[2,1-a]isoquinolin-2-yl]methyl 4-methoxypiperidine-4-carboxylate]"
3,+++,COc1cc2c(cc1OC)[C@H]1C[C@@H](COC(=O)CCC(C)(C)C(=O)O)[C@H](CC(C)C)CN1CC2 [Compound 3-12]
4,+,"COc1cc2c(cc1OC)[C@H]1C[C@@H](COC(=O)N3CCNC[C@H]3C)[C@H](CC(C)C)CN1CC2 [Compound 6-3, [(2R,3S,11bR)-9,10-dimethoxy-3-(2-methylpropyl)-1H,2H,3H,4H,6H,7H,11bH-pyrido[2,1-a]isoquinolin-2-yl]methyl (2R)-2-methylpiperazine-1-carboxylate]"
